Results from patent publication US20250236599A1, “LIPID NANOPARTICLES FOR OLIGONUCLEOTIDE DELIVERY” (ZIPHIUS NV, priority 2021, published 2025).

What was measured:
[1] = system: expression of the luciferase saRNA; test: In vivo bioluminescent imaging after intramuscular injection of LNP-formulated luciferase saRNA; conditions: 1 μg LNP-formulated luciferase saRNA intramuscularly, female SWISS mice
Procedure: (§1) Female SWISS mice (6 weeks old) were purchased from Janvier Laboratories (Paris, France) and kept in individually ventilated cages with access to food and water ad libitum. Mice were anesthetized with isoflurane (Zoetis, Louvain-La-Neuve, Belgium) (5% for induction and 2% for maintenance) and intramuscularly injected with a total of 1 μg in 100 μL Tris-HCL (50 μL per leg) LNP-formulated luciferase saRNA (for each group n=7). The expression of the luciferase induced bioluminescence was measured via non-invasive In vivo bioluminescent imaging (In vivo Imaging System (IVIS) Lumina III, Perkin Elmer, Waltham, Massachusetts, USA), 10 minutes after subcutaneous injection of […] of D-luciferin (GoldBio, Saint Louis, Missouri, USA, #LUCK-1G) were measured in day 0 (before injection), day 1, day 3, day 5, day 7, day 10, day 15 and day 20.

[2] = saRNA loading / encapsulation efficiency, Quant-IT RiboGreen assay; assay type: physicochemical; conditions: LNP lipid:DOPE:Cholesterol:DMG-PEG 35:20:43.5:1.5, firefly luciferase saRNA
Procedure: The saRNA loading in LNP formulations was quantified using a Quant-IT RiboGreen assay (Thermo Fisher Scientific, Waltham, Massachusetts, USA) as previously described. 14 samples were diluted tenfold in 1x Tris HCL-EDTA (TE) buffer (10 mM Tris-HCL, 1 mM EDTA, pH 7.5) with or without 2% (v/v) Triton X-100 (Sigma-Aldrich, Saint Louis, Missouri, USA). Standard solutions were also prepared in 1xTE with or without 2% (v/v) Triton X-100 to account for any variation in fluorescence. The assay was performed according to the manufacturer's protocol. Samples were loaded on a black 96-well plate and analysed for fluorescence on a microplate reader (Tecan Infinite® 200 PRO) at an excitation of 485 nm and emission at 528 nm. Encapsulation efficiency was calculated between 80-100%.

[3] = LNP particle size, polydispersity index and charge by Zeta Sizer; assay type: physicochemical; conditions: LNP lipid:DOPE:Cholesterol:DMG-PEG 35:20:43.5:1.5, firefly luciferase saRNA; for Polydispersity Index (PI) / Z-average (nm): N/P approx. 40/1
Procedure: Cationic lipids, DOPE, Cholesterol and DMG-PEG lipid were solubilized in ethanol or DMSO at a molar ratio of 35:20:43.5:1.5 and a concentration of 100:25:20:25 μg/μL for C12-200 or 170:25:20:25 μg/μL for the comparator lipids. Lipid nanoparticles (LNP) were prepared by targeting an N/P ratio of approximately 40/1 with saRNA. Briefly, the firefly luciferase saRNA of approximately 9659 nucleotides was diluted to 0.5 mg/mL in 5 mM citrate buffer, pH 4.5. Microfluidic mixer (Ignite from Precision Nanosystems, California, USA) was used to mix the lipid solution with the saRNA aqueous solution at a ratio of about 1:3 (vol/vol) with total flow rates above 10 ml/min. The ethanol was then removed, and the external buffer replaced with 10 mM TRIS-HCL, PH 7.4, by dialysis. Finally, the lipid nanoparticles were filtered through a 0.2 μm pore sterile filter. Lipid nanoparticle particle size was 50-150 nm diameter and polydispersity index (PI) of 0.1-0.4 as determined by Zeta Sizer (Malvern Panalytical, UK). The charge of the formulation was also measured by Zeta Sizer and ranged between 20 to −20 mV.

[4] = Weight evolution of the animals following administration of LNPs; assay type: in vivo; conditions: female SWISS mice
Procedure: as §1

[5] = Day 1, 1 μg LNP-formulated saRNA intramuscularly
[6] = Day 3, 1 μg LNP-formulated saRNA intramuscularly
[7] = Day 5, 1 μg LNP-formulated saRNA intramuscularly
[8] = Day 7, 1 μg LNP-formulated saRNA intramuscularly
[9] = Day 10, 1 μg LNP-formulated saRNA intramuscularly
[10] = Day 15, 1 μg LNP-formulated saRNA intramuscularly
[11] = Day 20, 1 μg LNP-formulated saRNA intramuscularly

| Compound | Encapsulation (%) [2] | Zetapotential (mV) [3] | Polydispersity Index (PI) [3] | Z-average (nm) [3] | Weight ([4]; Day 0) | Weight [4, 5] | Weight [4, 6] | Weight [4, 7] | Weight [4, 8] | Weight [4, 9] | Weight [4, 10] | Weight [4, 11] | Bioluminescence expression of LNPs ([1]; Day 1) | Bioluminescence expression of LNPs ([1]; Day 3) | Bioluminescence expression of LNPs ([1]; Day 5) | Bioluminescence expression of LNPs ([1]; Day 7) | Bioluminescence expression of LNPs ([1]; Day 10) | Bioluminescence expression of LNPs ([1]; Day 15) | Bioluminescence expression of LNPs ([1]; Day 20) |
| --- | --- | --- | --- | --- | --- | --- | --- | --- | --- | --- | --- | --- | --- | --- | --- | --- | --- | --- | --- |
| CCCCCCCCCCCCCCOC(=O)CCN(CCC(=O)OCCCCCCCCCCCCCC)CCN(CCC(=O)OCCCCCCCCCCCCCC)CCN1CCN(CCN(CCC(=O)OCCCCCCCCCCCCCC)CCC(=O)OCCCCCCCCCCCCCC)CC1 [Comparator 2 (C2), reference compound] | 97.61% | 8.70 mV | 0.16 | 96.53 nm | 27.80 g | 27.00 g | 27.70 g | 27.44 g | 27.84 g | 27.31 g | 29.54 g | 29.79 g | 2.19E+07 | 8.21E+07 | 2.21E+08 | 1.62E+08 | 2.27E+07 | 2.04E+05 | 9.42E+04 |
| CCCCCCC(CCCC)C(=O)OCCN(CCOC(=O)C(CCCC)CCCCCC)CCN(CCOC(=O)C(CCCC)CCCCCC)CCN1CCN(CCN(CCOC(=O)C(CCCC)CCCCCC)CCOC(=O)C(CCCC)CCCCCC)CC1 (stereo not drawn) [Compound 9-26, ((2-(4-(2-((2-(bis(2-((2-butyloctanoyl)oxy)ethyl)amino)ethyl) (2-((2-butyloctanoyl)oxy)ethyl)amino)ethyl)piperazin-1-yl)ethyl)azanediyl) bis(ethane-2,1-diyl)bis(2-butyloctanoate)] | 92.78% | −18.67 mV | 0.28 | 100.07 nm | 27.91 g | 27.31 g | 28.51 g | 28.46 g | 28.44 g | 29.13 g | 30.50 g | 32.44 g | 8.16E+06 | 2.76E+08 | 6.92E+08 | 6.31E+08 | 2.23E+07 | 4.91E+05 | 7.78E+04 |
| CCCCCCC(CCCC)C(=O)OCCCCN(CCCCOC(=O)C(CCCC)CCCCCC)CCN(CCCCOC(=O)C(CCCC)CCCCCC)CCN1CCN(CCN(CCCCOC(=O)C(CCCC)CCCCCC)CCCCOC(=O)C(CCCC)CCCCCC)CC1 (stereo not drawn) [Compound 9-27, ((2-(4-(2-((2-(bis(4-((2-butyloctanoyl)oxy)butyl)amino)ethyl) (4-((2-butyloctanoyl)oxy)butyl)amino)ethyl)piperazin-1-yl)ethyl)azanediyl) bis(butane-4,1-diyl)bis(2-butyloctanoate)] | 93.93% | −10.65 mV | 0.18 | 65.27 nm | 27.51 g | 26.21 g | 28.67 g | 28.56 g | 29.01 g | 29.61 g | 30.77 g | 31.87 g | 4.09E+07 | 1.51E+09 | 1.35E+09 | 9.33E+08 | 2.88E+06 | 2.77E+05 | 1.87E+05 |

Continued, in another order:

| Encapsulation (%) [2] | Zetapotential (mV) [3] | Polydispersity Index (PI) [3] | Z-average (nm) [3] | Weight ([4]; Day 0) | Weight [4, 5] | Weight [4, 6] | Weight [4, 7] | Weight [4, 8] | Weight [4, 9] | Weight [4, 10] | Weight [4, 11] | Compound | Bioluminescence expression of LNPs ([1]; Day 1) | Bioluminescence expression of LNPs ([1]; Day 3) | Bioluminescence expression of LNPs ([1]; Day 5) | Bioluminescence expression of LNPs ([1]; Day 7) | Bioluminescence expression of LNPs ([1]; Day 10) | Bioluminescence expression of LNPs ([1]; Day 15) | Bioluminescence expression of LNPs ([1]; Day 20) |
| --- | --- | --- | --- | --- | --- | --- | --- | --- | --- | --- | --- | --- | --- | --- | --- | --- | --- | --- | --- |
| 94.31% | −10.51 mV | 0.15 | 102.48 nm | 29.59 g | 29.53 g | 29.74 g | 30.04 g | 30.93 g | 30.63 g | 30.89 g | 32.69 g | CCCCCCCCC(CCCCCC)C(=O)OCCN(CCOC(=O)C(CCCCCC)CCCCCCCC)CCN(CCOC(=O)C(CCCCCC)CCCCCCCC)CCN1CCN(CCN(CCOC(=O)C(CCCCCC)CCCCCCCC)CCOC(=O)C(CCCCCC)CCCCCCCC)CC1 (stereo not drawn) [Compound 9-29, ((2-(4-(2-((2-(bis(2-((2-hexyldecanoyl)oxy)ethyl)amino)ethyl) (2-((2-hexyldecanoyl)oxy)ethyl)amino)ethyl)piperazin-1-yl)ethyl)azanediyl)bis(ethane-2,1-diyl) bis(2-hexyldecanoate)] | 4.13E+05 | 1.68E+07 | 4.25E+07 | 6.13E+07 | 3.92E+07 | 1.44E+06 | 5.43E+05 |
| 94.22% | −8.56 mV | 0.17 | 115.36 nm | 29.39 g | 28.23 g | 29.73 g | 29.77 g | 30.46 g | 31.20 g | 30.96 g | 32.00 g | CCCCCCCCC(CCCCCC)C(=O)OCCCCN(CCCCOC(=O)C(CCCCCC)CCCCCCCC)CCN(CCCCOC(=O)C(CCCCCC)CCCCCCCC)CCN1CCN(CCN(CCCCOC(=O)C(CCCCCC)CCCCCCCC)CCCCOC(=O)C(CCCCCC)CCCCCCCC)CC1 (stereo not drawn) [Compound 9-30, ((2-(4-(2-((2-(bis(4-((2-hexyldecanoyl)oxy)butyl)amino)ethyl) (4-((2-hexyldecanoyl)oxy)butyl)amino)ethyl)piperazin-1-yl)ethyl)azanediyl) bis(butane-4,1-diyl)bis(2-hexyldecanoate)] | 2.31E+06 | 2.87E+07 | 6.18E+07 | 9.09E+07 | 2.84E+07 | 1.67E+05 | 1.67E+05 |
| 93.33% | −16.38 mV | 0.17 | 54.53 nm | 27.00 g | 26.94 g | 28.46 g | 28.26 g | 28.11 g | 27.91 g | 29.69 g | 30.94 g | CCCCCCC(CCCC)C(=O)OCCN(CCOC(=O)C(CCCC)CCCCCC)CCN1CCN(CCN(CCOC(=O)C(CCCC)CCCCCC)CCOC(=O)C(CCCC)CCCCCC)CC1 (stereo not drawn) [Compound 9-32, ((piperazine-1,4-diylbis(ethane-2,1-diyl))bis(azanetriyl))tetrakis(ethane-2,1-diyl) tetrakis(2-butyloctanoate)] | 5.13E+06 | 1.31E+08 | 2.76E+08 | 3.71E+08 | 1.08E+07 | 6.35E+05 | 1.29E+05 |
